Laboratory results as given in patent publication US6255347A (priority 1997, dated 2001).
“Also recorded” adds a separate entry of the source.

Columns and labels:
NIH 3T3 cells = assay: Foci formation assay, inhibition of PMA induced neoplastic transformation of NIH 3T3 cells; type: cell-based; conditions: PMA 0.02 μg/ml, 2% FBS; for inhibition of PMA induced foci formation / neoplastic transformation: 6 weeks, ibuprofen 10 or 100 μg/ml
Procedure: (§1) NIH 3T3 cells (American Type Culture Collection, Rockville, Md.) were cultured in DMEM supplemented with 10% FBS inoculated at 10^4 cells/35 […] dish. […] PMA and ibuprofen were dissolved in DMSO and stored in 5% DMSO stock solutions that were diluted a 1000-fold with culture media prior to use. […] The media containing freshly added PMA and ibuprofen were changed every 60 hours for both the foci formation assay and PKCα analysis by Western blot.
Subsequent to washing with a tris/ saline buffer, the cells were stained with a solution of 4% aqueous Giemsa stain in phosphate buffer (pH 7.0). Foci of transformed cells were then visible by eye due to their high local density and verified by under light microscopy.

PKCα = PKCα translocation in NIH 3T3 cells (subcellular fractionation, Western blot); type: cell-based; conditions: 10 μg/ml; for inhibition of PKCα translocation from cytosol to nuclear compartments: PMA 4 hours; for inhibition of PKCα translocation, racemate versus enantiomers: particularly 2 weeks of PMA
Procedure: as §1
(§2) The cells were washed twice with phosphate-buffered saline (PBS) at 37° C. and subsequently lysed and scraped in 1 ml ice-cold protein lysis buffer (20 mM Tris-HCl, pH7.4, 2 mM EGTA, 2 mM EDTA, […] leupeptin and […] aprotinin) at 4° C. […] Briefly, cells were homogenized 10× in 15 ml glass homogenizer with a tight-fitting pestle and centrifuged at 900×g for 10 min. The resulting supernatant was then centrifuged at 100,000×g for 60 min to produce a nucleus-free membrane fraction (pellet) and a cytosol fraction (supernatant) for Western blots. The 900×g nuclear pellet was suspended in the 2 ml lysis buffer containing 10% sucrose and 0.1% Triton X-100 and washed twice by centrifuging at 1000×g for 10 min, then resuspended in 1 ml of the same buffer without Triton X-100 for Western blots. The purity of the fractions was monitored by light microscopy. […] The samples were stored at -70° C. until analysis.
(§3) 15 μl of human plasma, 15 μl of rat plasma, CSF or 50 μg of rat brain protein were denatured with 35 μl of sample buffer at 95° C. for 4 min. Denatured proteins were separated by 10% SDS-polyacrylamide gel electrophoresis with a 50 μg or 20 μg protein load for each sample for APPs or PKC, respectively, and electrophoretically transferred from gel to nitrocellulose membrane. […] The immunoreactive bands were developed using enhanced chemilumenescence (ECL. Amersham Life Sci., Little Chalfont, UK), following extensive washing with the blocking buffer. The PKC bands were verified in each case by competitively blocking the signal with the peptide corresponding to each of PKCs. The bands were quantitated by scanning densitometry. Quantitative comparisons were made between samples processed simultaneously on one blot.

PKC = biological target: T1, PKC (Rattus norvegicus, UniProt P05696); assay: Protein kinase C activity assay (histone phosphorylation, partially purified rat brain PKC); type: biochemical; conditions: PMA stimulated; for concentration inhibiting PKC mediated histone phosphorylation: 2 min, 30° C.
T1 construct: Partially purified PKCα from rat brain; purchased Promega (Madison, Wis.); host or cells: rat brain (tissue enzyme, partially purified)
Procedure: The following were obtained from the Sigma Chemical Co. (St. […] Anti-PKCα antibody (affinity purified) and its C-terminal region peptide was obtained from Life Technologies (Gaithersburg, Md.). […] All other chemicals were of the highest available purity and were obtained from standard commercial sources. […] Following 2 min initial incubation at 30° C., kinase reactions were initiated by the addition of ^32 P-γ-ATP and enzyme and continued at 30° C. for 2 min. Control incubations contained all assay components except enzyme and ibuprofen. […] All samples were carried out in duplicate.

APPs [1] = conditions: 10 mg/kg P.O. bid, 7 days
Procedure: as §3
(§4) Male Sprague-Dawley rats (12 month) were obtained from Harlan-Sprague-Dawley, Inc. (Indianapolis, Ind.) and housed under controlled conditions of temperature humidity and light/dark cycle. […] Rat blood, brain and 50 μl of cerebrospinal fluid were collected and stored at -70° C. for APPs and PKC analysis by Western blotting. Rat stomach and duodenum were collected for the quantitation of gastroduodenal lesions.
The cytosolic and membrane fractions were obtained by differential centrifugation of rat brain tissue treated by ibuprofen. […]

APPs [2] = conditions: 10 mg/kg P.O. bid, 7 days; n = 4 mean ± S.D.
Procedure: as §2, §3
Male Sprague-Dawley rats (12 month) were obtained from Harlan-Sprague-Dawley, Inc. (Indianapolis, Ind.) and housed under controlled conditions of temperature humidity and light/dark cycle. […] Rat stomach and duodenum were collected for the quantitation of gastroduodenal lesions. […]

PKC .xi. = conditions: cytosolic or membranous fractions
Procedure: as §2, §3, §4
(§5) Following separation of cytosolic or membrane proteins of rat brain protein by SDS-polyacrylamide gel electrophoresis, the proteins were transfer to nitrocellular membranes. The membranes were then probed for presence of PKCs using polyclonal antibodies against PKC α, βII, θ, ε, .xi., or γ.

PKC α = test system: PKC α
Procedure: as §2, §3, §4, §5

PKC βII = test system: PKC βII
Procedure: as §2, §3, §4, §5

PKC γ = conditions: cytosolic or membranous fractions
Procedure: as §2, §3, §4, §5

PKC ε = conditions: cytosolic or membranous fractions
Procedure: as §2, §3, §4, §5

PKC θ = conditions: cytosolic or membranous fractions
Procedure: as §2, §3, §4, §5

rat stomach and duodenum = assay: Gastric ulcer index / gastroduodenal lesions in rat; type: in vivo; conditions: rat, in vivo
Procedure: as §4
The rat stomach and first 12 cm of the duodenum were opened and carefully shed with saline to remove any residual debris and fixed in 10% buffered formaldehyde. Tissues were examined macroscopically (×10) for lesions and hemorrhages. The evaluation of lesions or hemorrhages was based on the ulcer index (UI) reported by Leyck et al. (1985) and expressed as the sum total of lesions per treatment. The scoring units used ranged from 0 to 5, where zero represents no macroscopically visible lesions; 1 represents one to three small ulcers less than 4 mm; 2 represents more than three small ulcers; 3 represents ulcer hemorrhages with several small ulcers; 4 represents large (>4 mm) ulcers; 5 indicates tissue perforation.

APPs (105 kDa) = APPs (105 kDa) in human blood; type: in vivo
Procedure: as §3
Food intake was restricted until 4 h post dose. […] Over the next 6 days, ibuprofen was administered as 800 mg t.i.d. and subjects were instructed to return on day 3 and 5 for a single blood draw. […] Serum samples were stoiced -20° C. prior to analysis.

[3] = test system: APPs secretion by NIH 3T3 cell lines; conditions: 50 μM; for Density of APPs band: 20 h culture, n = 2, mean ± S.D.
risk of AD = conditions: in vivo; cited from earlier work
[4] = Chiral inversion of R- to S-ibuprofen in culture (HPLC); type: in vitro ADME; conditions: NIH 3T3 culture
Procedure: The concentration of the enantiomers of ibuprofen in cell culture media was determined by an HPLC procedure previously described for the enantiomers of ketoprofen (Grubb et al., 1996). The HPLC column consisted of a 5 μm (S,S)-Whelk-O1 stationary phase (250 mm×4.6 mm; Regis Technologies, Morton Grove, Ill.) eluted with a mobile phase of hexane/isopropyl alcohol/acetic acid (98/2/0.05) flowing at 0.8 ml/ min. […] Quantitation was achieved using peak area ratios with R-flurbiprofen as internal standard and ultraviolet absorbance at 254 nm. The limit of quantitation was set at 100 ng/ml.

cyclooxygenase = conditions: cited from earlier work
AD progression = conditions: 6-month, double-blind, placebo-controlled; cited from earlier work
animal tumors = conditions: in vivo; cited from earlier work
APP = conditions: via activation of PKC; cited from earlier work
[5] = membrane fraction, 10 mg/kg bid 7 days, n = 4 mean ± S.D.

CC(C)Cc1ccc(C(C)C(=O)O)cc1 (racemic) [RS-ibuprofen]
inhibition of PMA induced foci formation / neoplastic transformation (NIH 3T3 cells; listed as Racemic ibuprofen): dramatically decreased | inhibition of PMA induced foci formation / neoplastic transformation (NIH 3T3 cells; listed as racemic ibuprofen): inhibit the neoplastic transformation; also recorded: substantially inhibited | PKCα detectable in the membrane fraction (PKCα; 2 weeks of PMA): detectable in the membrane fraction | inhibition of PKCα translocation from cytosol to nuclear compartments (PKCα): completely blocked | inhibition of PKCα translocation, racemate versus enantiomers (PKCα): less potent than either of the enantiomers | concentration inhibiting PKC mediated histone phosphorylation (PKC): 2 µM | APPs secretion in rat CSF (in words) (APPs [1]): dramatically increased APPs secretion | Density of APP Bands, CSF (APPs [1]; n = 4 mean ± S.D.): 13.63 ± 6.56 | Density of APP Bands, Cytosol (APPs [2]): 9.32 ± 5.35 | effect on PKC .xi. content (PKC .xi.): did not show a dramatic effect | rat brain PKC α content (in words) (PKC α; 7 days of treatment): not significantly | Density of PKC α Bands (PKC α; [5]): 13.61 ± 5.15 | rat brain PKC βII content (in words) (PKC βII; 7 days of treatment): not significantly | Density of PKC βII Bands (PKC βII; [5]): 8.46 ± 3.68 | effect on PKC γ content (PKC γ): did not show a dramatic effect | effect on PKC ε content (PKC ε): did not show a dramatic effect | effect on PKC θ content (PKC θ): did not show a dramatic effect | gastropathy (in words) (rat stomach and duodenum): induced serious gastric ulcers and hemorrhage | human blood APPs (105 kDa) (APPs (105 kDa); 1st dose (800 mg), 0 hour (before dose), n = 4, mean ± S.D.): 1.95 | duration of increased APPs (105 kDa) secretion (APPs (105 kDa); after 7 days dosing, 800 mg t.i.d. oral): 14 days | human blood APPs (105 kDa) (APPs (105 kDa); post 1st dose (800 mg), 1 hour, n = 4, mean ± S.D.): 3.64 | human blood APPs (105 kDa) (APPs (105 kDa); post 1st dose (800 mg), 3 hours, n = 4, mean ± S.D.): 3.22 | human blood APPs (105 kDa) (APPs (105 kDa); post 7 days dose (800 mg, tid), 1 hour, n = 4, mean ± S.D.): 4.57 | human blood APPs (105 kDa) (APPs (105 kDa); post 7 days dose (800 mg, tid), 1 day, n = 4, mean ± S.D.): 6.15 | human blood APPs (105 kDa) (APPs (105 kDa); post 7 days dose (800 mg, tid), 2 days, ND = Not detectable): 4.77 | human blood APPs (105 kDa) (APPs (105 kDa); post 7 days dose (800 mg, tid), 3 days, ND = Not detectable): 4.33 | human blood APPs (105 kDa) (APPs (105 kDa); post 7 days dose (800 mg, tid), 4 days, ND = Not detectable): 3.37 | human blood APPs (105 kDa) (APPs (105 kDa); post 7 days dose (800 mg, tid), 14 days, ND = Not detectable): 3.77 | duration of increased APPs (105 kDa) secretion (APPs (105 kDa); single oral 800 mg dose): 1 days | Density of APPs band [3]: 6.073 ± 0.55

CC(=O)Oc1ccccc1C(=O)O [Aspirin]
APPs secretion (in words) ([3]; 20 h): failed to show an increased secretion of APPs | Density of APPs band [3]: 2.92 ± 0.43 | association with decreased risk of AD (risk of AD): not associated

CC(C)Cc1ccc([C@@H](C)C(=O)O)cc1 [R-ibuprofen]
inhibition of foci formation, enantiomers compared to racemate (NIH 3T3 cells): more pronounced than that of the racemate; also recorded: more effective than the racemic mixture | inhibition of PMA induced foci formation / neoplastic transformation (NIH 3T3 cells): dramatically decreased; also recorded: inhibit the neoplastic transformation; also recorded: substantially inhibited | inhibition of PKCα translocation compared to antipode (PKCα; 4 hours PMA): more effective than its antipode | inhibition of PKCα translocation from cytosol to nuclear compartments (PKCα): clearly modulated the time dependent intracellular redistribution of PKCα | inhibition of PKCα translocation, racemate versus enantiomers (PKCα): more effective than the racemic mixture | concentration inhibiting PKC mediated histone phosphorylation (PKC): 1 µM | inhibition at 20 µM (PKC; read-out: maximal inhibition of PKC activity, at 20 μM): 53% | inversion of R- to S-ibuprofen [4]: No inversion of R- to S-ibuprofen was detectable; also recorded: did not occur | gastric ulcers, incidence (rat stomach and duodenum): one small gastric ulcer in 2 out of 4 rats | ulcers larger than 4 mm (rat stomach and duodenum): no ulcer larger than 4 mm | capability to inhibit cyclooxygenase (in words) (cyclooxygenase): very weak capability to inhibit cyclooxygenase

CC(=O)Nc1ccc(O)cc1 [acetaminophen]
association with decreased risk of AD (risk of AD): not associated

COc1ccc2c(c1)c(CC(=O)O)c(C)n2C(=O)c1ccc(Cl)cc1 [indomethacin]
slowing AD progression (AD progression): very effective in slowing AD progression

N[C@H](Cc1ccc(N(CCCl)CCCl)cc1)C(=O)O [medphalan]
activity against certain animal tumors versus melphalan (animal tumors): less active

CCCCCCCCCCCCCC(=O)O[C@@H]1[C@@H](C)[C@@]2(O)[C@@H](C=C(CO)C[C@]3(O)C(=O)C(C)=C[C@@H]23)[C@@H]2C(C)(C)[C@]12OC(C)=O [phorbol ester]
formation of APPs (APP): increase the formation of APPs | production of amyloidogenic fragments containing Aβ and Aβ (APP): reduce the production
